Data taken from US8221975B2, “Method for detection of microorganism” (Morinaga Milk Industry Co., Ltd., priority 2007, dated 2012).
Values joined by “and” are separate entries in the source; they are usually repeats but may differ in a detail not shown here. Identical values can stand only once.

Experiments:
Format in all cases: cell-based
[1] = system: Enterobacter sakazakii ATCC 6538P; test: ompA real-time PCR (469 bp) of EMA-treated Enterobacter sakazakii, Ct value
Enterobacter sakazakii = test: ompA-PCR (469 bp) of EMA-treated Enterobacter sakazakii, band intensity of final amplified product
Experimental: (§1) A Gram-negative bacterium, Enterobacter sakazakii (Enterobacter sakazakii ATCC […]; hereinafter, abbreviated as “sakazakii” in some cases), was cultured in brain-heart infusion (BHI) broth at 37° C., and 5 ml of the culture medium in the logarithmic growth phase was centrifuged at 8,000×g for 15 minutes at 4° C., followed by removal of the supernatant. 5 ml of physiological saline was added to the bacterial cells, and the whole was vigorously stirred and diluted 10-fold. Thus, a live cell suspension was prepared. […] The live cell suspension (1 ml) was placed in a 1.5-ml microtube, and the microtube was immersed in boiling water for 2 minutes and immediately cooled with ice water, to thereby prepare a injured cell suspension. The cells in the suspension probably include small numbers of live cells and dead cells but include mainly injured cells. Therefore, the cells are simply referred to as “injured cells”. Note that the method of the present invention is originally intended to detect live cells, and microorganism cells distinguished from live cells may be injured cells or dead cells. Ethidium monoazide (EMA) was added to the live cell suspension and injured cell suspension of sakazakii prepared above at a final concentration of 0, 10, 25, or 100 μg/ml, and the suspensions were allowed to stand under shading at 4° C. for 10 minutes. The suspensions were placed on ice and irradiated for 5 minutes with a 500-W visible light (FLOOD PRF: 100 […] ELECTRIC CO., LTD., wavelength: 500 to 700 nm) at a distance of 20 cm from the suspensions. Then, the suspensions were centrifuged at 15,000×g for 10 minutes at 4° C., and the supernatants were removed. An equal volume of physiological saline was added thereto, and the suspensions were stirred and centrifuged while cooling at 15,000×g for 10 minutes at 4° C., followed by removal of the supernatants. An equal volume of brain-heart infusion (BHI) broth was added thereto, and the suspensions were incubated at 37° C. for 2 hours. In the first EMA treatment, EMA was not added again to the live cell and injured cell suspensions having an EMA concentration of 0, while EMA was added again at a final concentration of 10 μg/ml to the live cell and injured cell suspensions having an EMA concentration of 10, 25, or 100 μg/ml. The suspensions were allowed to stand under shading at 4° C. for 10 minutes, placed on ice, and irradiated for 5 minutes with a 500-W visible light at a distance of 20 cm from the suspensions. Ethidium monoazide (EMA) was added to the live cell and injured cell suspensions of sakazakii prepared in the section “1.” at a final concentration of 0, 10, 25 or 100 μg/ml, and the suspensions were allowed to stand under shading at 4° C. for 10 minutes, placed on ice, and irradiated for 5 minutes with a 500-W visible light (FLOOD PRF: […] ELECTRIC CO., LTD., wavelength: 500 to 700 nm) at a distance of 20 cm from the suspensions. Microtubes including one of the live cell and injured cell suspensions of sakazakii treated in the sections 2-1) and 2-2) above were centrifuged at 15,000×g for 10 minutes at 4° C. The supernatants were removed, and 1 ml of physiological saline was added thereto. The resultant suspensions were stirred vigorously and centrifuged while cooling in the same way as above (washing treatment). One more washing treatment was performed in the same way, and the same amount of sterile water as the initial amount was added to the pellets, followed by vigorous stirring. PCR Master Mix (total volume: 25.25 μl) was prepared using Direct Buffer Mix (G&g SCIENCE CO., LTD., Yokohama, Kanagawa) capable of sequentially and automatically performing elution of chromosomal DNA from a bacterium and PCR reactions. […]

[2] = system: Enterobacter sakazakii ATCC 6538P; test: as above; conditions: multi-step treatment (EMA 10 μg/ml-incubation-EMA 10 μg/ml)
Experimental: as §1

[3] = system: Salmonella enteritidis IIP 604; test: invA-PCR (378 bp) of EMA-treated Salmonella, band intensity of final amplified product; conditions: for bands of invA gene amplified products (electrophoresis, FIG. 4): multi-step treatment (EMA 10 μg/ml-incubation-EMA 10 μg/ml)
[4] = system: Salmonella enteritidis IIP 604; test: invA real-time PCR (378 bp) of EMA-treated Salmonella, Ct value
[5] = system: Enterobacter sakazakii ATCC 6538P; test: MMS-PCR of EMA-treated Enterobacter sakazakii, band intensity of final amplified product; conditions: for bands of MMS gene amplified products (electrophoresis, FIG. 3): multi-step treatment (EMA 10 μg/ml-incubation-EMA 10 μg/ml)
Experimental: as §1

[6] = single-step EMA 10 μg/ml, Injured cell
[7] = single-step EMA 10 μg/ml, Live cell
[8] = single-step EMA 25 μg/ml, Injured cell
[9] = single-step EMA 25 μg/ml, Live cell
[10] = single-step EMA 100 μg/ml, Injured cell
[11] = single-step EMA 100 μg/ml, Live cell
[12] = two-step EMA 10/10 μg/ml, Injured cell
[13] = two-step EMA 10/10 μg/ml, Live cell
[14] = two-step EMA 25/10 μg/ml, Injured cell
[15] = two-step EMA 25/10 μg/ml, Live cell
[16] = two-step EMA 100/10 μg/ml, Injured cell
[17] = two-step EMA 100/10 μg/ml, Live cell
[18] = multi-step: EMA 10 μg/ml + Incubation (37° C., 2 hr) + EMA 10 μg/ml, Injured cell
[19] = multi-step: EMA 10 μg/ml + Incubation (37° C., 2 hr) + EMA 10 μg/ml, Live cell

CC[n+]1c(-c2ccccc2)c2cc(N=[N+]=[N-])ccc2c2ccc(N)cc21 [EMA, ethidium monoazide]
Ct value (mean ± SD, N = 2) [1, 6]: 36.3, ND^c,d | number of times of positive reaction in two PCR assays (i/2) [1, 6]: (1/2) | Ct value (mean ± SD, N = 2) [1, 7]: 18.8 ± 0.3 | number of times of positive reaction in two PCR assays (i/2) [1, 7]: (2/2) | Ct value (mean ± SD, N = 2) [1, 8]: ND, ND | number of times of positive reaction in two PCR assays (i/2) [1, 8]: (0/2) | Ct value (mean ± SD, N = 2) [1, 9]: 20.9±0.6 | number of times of positive reaction in two PCR assays (i/2) [1, 9]: (2/2) | Ct value (mean ± SD, N = 2) [1, 10]: 35.0, ND | number of times of positive reaction in two PCR assays (i/2) [1, 10]: (1/2) | Ct value (mean ± SD, N = 2) [1, 11]: 23.9 ± 0.9 | number of times of positive reaction in two PCR assays (i/2) [1, 11]: (2/2) | Ct value (mean ± SD, N = 2) [1, 12]: ND, ND | number of times of positive reaction in two PCR assays (i/2) [1, 12]: (0/2) | Ct value (mean ± SD, N = 2) [1, 13]: 15.9±0.4 | number of times of positive reaction in two PCR assays (i/2) [1, 13]: (2/2) | Ct value (mean ± SD, N = 2) [1, 14]: ND, ND | number of times of positive reaction in two PCR assays (i/2) [1, 14]: (0/2) | Ct value (mean ± SD, N = 2) [1, 15]: 20.1 ± 1.6 | number of times of positive reaction in two PCR assays (i/2) [1, 15]: (2/2) | Ct value (mean ± SD, N = 2) [1, 16]: 36.0, ND | number of times of positive reaction in two PCR assays (i/2) [1, 16]: (1/2) | Ct value (mean ± SD, N = 2) [1, 17]: 23.6 ± 0.4 | number of times of positive reaction in two PCR assays (i/2) [1, 17]: (2/2) | Band Intensity (Enterobacter sakazakii; [18]): 0.000 | Band Intensity (Enterobacter sakazakii; [19]): 1.546 | Band Intensity (Enterobacter sakazakii; [6]): 0.502 | Band Intensity (Enterobacter sakazakii; [7]): 1.690 | bands of ompA gene amplified products (electrophoresis, FIG. 2) ([2]; injured cells): no band was detected | bands of ompA gene amplified products (electrophoresis, FIG. 2) ([2]; live cells): bands were clearly detected | bands of invA gene amplified products (electrophoresis, FIG. 4) ([3]; injured cells): no band was detected | bands of invA gene amplified products (electrophoresis, FIG. 4) ([3]; live cells): bands were clearly detected | Band Intensity [3, 18]: 0.000 | Band Intensity [3, 19]: 0.742 | Band Intensity [3, 6]: 1.218 | Band Intensity [3, 7]: 2.856 | Ct value (mean ± SD, N = 2) [4, 6]: 31.6 ± 4.7 | number of times of positive reaction in two PCR assays (i/2) [4, 6]: (2/2) | Ct value (mean ± SD, N = 2) [4, 7]: 16.2 ± 0.4 | number of times of positive reaction in two PCR assays (i/2) [4, 7]: (2/2) | Ct value (mean ± SD, N = 2) [4, 8]: ND, ND^c,d | number of times of positive reaction in two PCR assays (i/2) [4, 8]: (0/2) | Ct value (mean ± SD, N = 2) [4, 9]: 18.23±0.3 and 18.2 ± 0.3 | number of times of positive reaction in two PCR assays (i/2) [4, 9]: (2/2) | Ct value (mean ± SD, N = 2) [4, 10]: ND, ND | number of times of positive reaction in two PCR assays (i/2) [4, 10]: (0/2) | Ct value (mean ± SD, N = 2) [4, 11]: 27.7±3.8 and 27.7 ± 3.6 | number of times of positive reaction in two PCR assays (i/2) [4, 11]: (2/2) | Ct value (mean ± SD, N = 2) [4, 12]: ND, ND | number of times of positive reaction in two PCR assays (i/2) [4, 12]: (0/2) | Ct value (mean ± SD, N = 2) [4, 13]: 16.0±3.5 | number of times of positive reaction in two PCR assays (i/2) [4, 13]: (2/2) | Ct value (mean ± SD, N = 2) [4, 14]: ND, ND | number of times of positive reaction in two PCR assays (i/2) [4, 14]: (0/2) | Ct value (mean ± SD, N = 2) [4, 15]: 18.9 ± 2.2 | number of times of positive reaction in two PCR assays (i/2) [4, 15]: (2/2) | Ct value (mean ± SD, N = 2) [4, 16]: ND, ND | number of times of positive reaction in two PCR assays (i/2) [4, 16]: (0/2) | Ct value (mean ± SD, N = 2) [4, 17]: 27.9 ± 3.0 | number of times of positive reaction in two PCR assays (i/2) [4, 17]: (2/2) | bands of MMS gene amplified products (electrophoresis, FIG. 3) ([5]; injured cells): no band was detected | bands of MMS gene amplified products (electrophoresis, FIG. 3) ([5]; live cells): bands were clearly detected | Band Intensity [5, 18]: 0.000 | Band Intensity [5, 19]: 0.997 | Band Intensity [5, 6]: 0.855 | Band Intensity [5, 7]: 0.845
